# Where a SMILES comes first, the peptide text is derived from it.
# Tests used:
# E. coli DC2 = assay: Assay of antibacterial activity (MIC), E. coli DC2; format: cell-based, Escherichia coli; settings: Table 5A
# Outline: (§1)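 Broth microdilution MIC in Mueller Hinton broth, 2−7×10^5 CFU/ml inoculum from overnight cultures. Peptides serially doubled in 0.01% acetic acid, 0.2% BSA at 10× test concentration. Incubation 37° C for 18-24 h, rechecked at 40-48 h; growth read visually and at 600 nm.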
# B. subtilis ATCC6633 = format: cell-based, Bacillus subtilis
# Source text: (§2) The bacterial strains used were E. coli C498, E. coli C500, Escherichia coli UB1005 and its antibiotic supersusceptible derivative DC2 (22); a clinical isolate of Staphylococcus epidermidis (C621); coryneform bacterial strain Corynebacterium xerosis (C875); and E. coli ATCC 25922, Staphylococcus aureus ATCC 25923, Enterococcus faecalis ATCC 29212, Bacillus subtilis ATCC 6633 and Pseudomonas aeruginosa ATCC 27853, all from American Type Culture Collection.
# (§3) Peptide antibacterial activity was assessed by the method of R. Hancock et al. (Wu & Hancock (1999), J. Biol. Chem., v. 274, pp. 29-35). Test strains of bacteria from Mueller Hinton agar (MHA) plates were inoculated into 5 ml Mueller Hinton Broth (MHB) in tubes and grown overnight at 37° C. on a shaker (180 rpm). Serial dilutions of test peptides (at 10 times the required test concentrations) were made in 0.01% acetic acid, 0.2% BSA, in polypropylene or coated glass tubes as follows: the test peptide was (a) dissolved in distilled water at 20 times the required maximum concentration (enough final volume for all tests to be performed on a given day); (b) diluted into an equal volume of 0.02% acetic acid, 0.4% BSA to give 10 times the required maximum concentration; (c) serial doubling dilutions were performed in 0.01% acetic acid, 0.2% BSA to provide serial dilutions of peptides at 10 times the required test concentrations, e.g., 640, 320, 160, . . . 2.5 μg/ml. (No deleterious effects of long-term storage of peptides in these media have been detected). Overnight bacterial cultures were diluted in MHB to give 2−7×10^5 colony forming units/ml. Bacterial suspension (100 μl) was dispensed in each well; controls without bacteria were maintained in parallel. To each well was added 11 μl of 10× test peptide and plates were incubated at 37° C. for 18-24 hours, and checked again at 40-48 hours. Plates were read visually and at 600 nm in a microplate reader (Molecular Devices).
# (§4) A further number of the peptides of the invention were tested for antimicrobial activity against a range of Gram-positive and Gram-negative bacteria by the assay described immediately before Example 1.
# P. aeruginosa ATCC27853 = format: cell-based, Pseudomonas aeruginosa
# Source text: as §2, §3, §4
# E. faecalis ATCC29212 = format: cell-based, Enterococcus faecalis
# Source text: as §2, §3, §4
# E. coli ATCC25922 = format: cell-based
# Source text: as §2, §3, §4
# [1] = tested on: Corynebacterium xerosis (C875); format: cell-based
# Outline: (§5)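 Broth microdilution in Mueller Hinton Broth, inoculum 2−7×10^5 CFU/ml. Peptides serially doubled in 0.01% acetic acid, 0.2% BSA and added at 10× final concentration. Incubation 37° C for 18-24 h, rechecked at 40-48 h; growth read visually and at 600 nm.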
# [2] = tested on: Staphylococcus epidermidis (C621); format: cell-based; settings: C621
# Outline: as §5
# E. coli UB1005 = format: cell-based, Escherichia coli; settings: UB1005
# Outline: as §1
# S. aureus ATCC25923 = format: cell-based, Staphylococcus aureus
# Source text: as §2, §3, §4
# Human RBC = format: cell-based
# Protocol: (§6) Erythrocytes from heparinized rabbit or human blood were washed three times with phosphate-buffered saline (PBS; 5 mM phosphate buffer, 0.14 M saline, pH 7.3), and centrifuged at 1000×g for 15 min at 4° C. The erythrocytes were diluted with PBS to 4% (v/v). Dilutions of the peptides in PBS were plated in 100 μl volumes in microtitre plates (Costar 3790, polypropylene) together with 100μl of the erythrocyte suspension. PBS was used as control and 100% lysis was determined in 0.1% Triton X-100. The plates were incubated at 37° C. for 1 h and then centrifuged at 1000×g for 5 min. 100 μl aliquots of the supernatant were transferred to microtitre plates (Nunc, polystyrene), and the release of hemoglobin was monitored by measurement of the absorbance at 540 nm in a microplate reader. The results are shown in Table 6, for peptide concentrations of […]. With only one or two exceptions, little or no hemolysis was seen.
# Rabbit RBC = format: cell-based
# Protocol: as §6
# [3] = tested on: C500: E. coli, antibiotic strain; format: cell-based; settings: C500: , antibiotic strain
# Source text: as §2, §3
# (§7) were synthesized. The antibacterial activity of these peptides was determined against both Gram-positive bacteria ([…], Corynebacterium xerosis) and Gram-negative bacteria (various strains of E. coli). The results are shown in Table 2, along with the average hydrophobicity of each peptide, calculated as described herein.
# [4] = tested on: C498: E. coli, wild type strain; format: cell-based; settings: C498: , wild type strain
# Source text: as §2, §3, §7
smiles,measurement,setting,value
"C[C@H](NC(=O)[C@H](C)NC(=O)[C@H](Cc1ccccc1)NC(=O)[C@H](C)NC(=O)[C@H](C)NC(=O)[C@H](Cc1c[nH]c2ccccc12)NC(=O)[C@H](C)NC(=O)[C@H](C)NC(=O)[C@H](Cc1ccccc1)NC(=O)[C@H](C)NC(=O)[C@H](C)NC(=O)[C@H](CCCCN)NC(=O)[C@H](CCCCN)NC(=O)[C@H](CCCCN)NC(=O)[C@H](CCCCN)NC(=O)[C@H](CCCCN)NC(=O)[C@@H](N)CCCCN)C(N)=O [F17(K6), KKKKKKAAFAAWAAFAA-NH2] (H-KKKKKKAAFAAWAAFAA-NH2; N-terminus assumed)",MIC E. coli DC2,E. coli DC2,0.5 µM
same,MIC B. subtilis ATCC6633,B. subtilis ATCC6633,8 µM
same,MIC P. aeruginosa ATCC27853,P. aeruginosa ATCC27853,16 µM
same,MIC E. faecalis ATCC29212,E. faecalis ATCC29212,>32 µM
same,MIC E. coli ATCC25922,E. coli ATCC25922,8 µM
same,MIC C875,[1],0.5 µM
same,MIC C. xerosis C875,[1],0.5 µM
same,MIC S. epidermidis C621,[2],4 µM
same,MIC E. coli UB1005,E. coli UB1005,1 µM
same,MIC S. aureus ATCC25923,S. aureus ATCC25923,>32 µM
same,Human RBC (% lysis) 50 μM,Human RBC,0 % lysis
same,Human RBC (% lysis) 200 μM,Human RBC,0 % lysis
same,Rabbit RBC (% lysis) 50 μM,Rabbit RBC,0 % lysis
same,Rabbit RBC (% lysis) 200 μM,Rabbit RBC,1 % lysis
same,MIC C500,[3],<0.25 µM
same,MIC C498,[4],0.5 µM
"C[C@H](NC(=O)[C@H](C)NC(=O)[C@H](CCCCN)NC(=O)[C@H](CCCCN)NC(=O)[C@@H](N)CCCCN)C(=O)N[C@@H](C)C(=O)N[C@@H](Cc1ccccc1)C(=O)N[C@@H](C)C(=O)N[C@@H](C)C(=O)N[C@@H](Cc1c[nH]c2ccccc12)C(=O)N[C@@H](C)C(=O)N[C@@H](C)C(=O)N[C@@H](Cc1ccccc1)C(=O)N[C@@H](C)C(=O)N[C@@H](CCCCN)C(=O)N[C@@H](CCCCN)C(=O)N[C@@H](CCCCN)C(N)=O [Peptide F17, KKKAAAFAAWAAFAKKK-NH2] (H-KKKAAAFAAWAAFAKKK-NH2; N-terminus assumed)",MIC E. coli DC2,E. coli DC2,16 µM
same,MIC B. subtilis ATCC6633,B. subtilis ATCC6633,16 µM
same,MIC P. aeruginosa ATCC27853,P. aeruginosa ATCC27853,>32 µM
same,MIC E. faecalis ATCC29212,E. faecalis ATCC29212,>32 µM
same,MIC E. coli ATCC25922,E. coli ATCC25922,>32 µM
same,MIC C. xerosis C875,[1],4 µM
same,MIC S. epidermidis C621,[2],>32 µM
same,MIC E. coli UB1005,E. coli UB1005,32 µM
same,MIC S. aureus ATCC25923,S. aureus ATCC25923,>32 µM
same,Human RBC (% lysis) 50 μM,Human RBC,0 % lysis
same,Human RBC (% lysis) 200 μM,Human RBC,0 % lysis
same,Rabbit RBC (% lysis) 50 μM,Rabbit RBC,0 % lysis
same,Rabbit RBC (% lysis) 200 μM,Rabbit RBC,2 % lysis
"C[C@H](NC(=O)[C@H](C)NC(=O)[C@H](Cc1ccccc1)NC(=O)[C@H](C)NC(=O)[C@H](C)NC(=O)[C@H](CCCNC(=N)N)NC(=O)[C@H](CCCNC(=N)N)NC(=O)[C@@H](N)CCCNC(=N)N)C(=O)N[C@@H](Cc1c[nH]c2ccccc12)C(=O)N[C@@H](C)C(=O)N[C@@H](C)C(=O)N[C@@H](Cc1ccccc1)C(=O)N[C@@H](C)C(=O)N[C@@H](C)C(=O)N[C@@H](CCCNC(=N)N)C(=O)N[C@@H](CCCNC(=N)N)C(=O)N[C@@H](CCCNC(=N)N)C(N)=O [Peptide F17R, RRRAAFAAWAAFAARRR-NH2] (H-RRRAAFAAWAAFAARRR-NH2; N-terminus assumed)",MIC E. coli DC2,E. coli DC2,1 µM
same,MIC B. subtilis ATCC6633,B. subtilis ATCC6633,2 µM
same,MIC P. aeruginosa ATCC27853,P. aeruginosa ATCC27853,16 µM
same,MIC E. faecalis ATCC29212,E. faecalis ATCC29212,>32 µM
same,MIC E. coli ATCC25922,E. coli ATCC25922,8 µM
same,MIC C875,[1],1 µM
same,MIC C. xerosis C875,[1],1 µM
same,MIC S. epidermidis C621,[2],4 µM
same,MIC E. coli UB1005,E. coli UB1005,2 µM
same,MIC S. aureus ATCC25923,S. aureus ATCC25923,>32 µM
same,Human RBC (% lysis) 50 μM,Human RBC,0 % lysis
same,Human RBC (% lysis) 200 μM,Human RBC,0 % lysis
same,Rabbit RBC (% lysis) 50 μM,Rabbit RBC,0 % lysis
same,Rabbit RBC (% lysis) 200 μM,Rabbit RBC,2 % lysis
same,MIC C500,[3],0.5 µM
same,MIC C498,[4],2 µM
C[C@H](NC(=O)[C@H](C)NC(=O)[C@H](C)NC(=O)[C@H](Cc1ccccc1)NC(=O)[C@H](C)NC(=O)[C@H](CCCCN)NC(=O)[C@@H](N)CCCCN)C(=O)N[C@@H](C)C(=O)N[C@@H](C)C(=O)N[C@@H](Cc1ccccc1)C(=O)N[C@@H](C)C(=O)N[C@@H](C)C(=O)N[C@@H](Cc1c[nH]c2ccccc12)C(=O)N[C@@H](C)C(=O)N[C@@H](C)C(=O)N[C@@H](Cc1ccccc1)C(=O)N[C@@H](C)C(=O)N[C@@H](CCCCN)C(=O)N[C@@H](CCCCN)C(=O)N[C@@H](CCCCN)C(=O)N[C@@H](CCCCN)C(N)=O [Peptide F21] (H-KKAFAAAAAFAAWAAFAKKKK-NH2; N-terminus assumed),MIC E. coli DC2,E. coli DC2,4 µM
same,MIC B. subtilis ATCC6633,B. subtilis ATCC6633,2 µM
same,MIC P. aeruginosa ATCC27853,P. aeruginosa ATCC27853,>32 µM
same,MIC E. faecalis ATCC29212,E. faecalis ATCC29212,>32 µM
same,MIC E. coli ATCC25922,E. coli ATCC25922,32 µM
same,MIC C. xerosis C875,[1],0.5 µM
same,MIC C621,[2],8 to 16 µM
same,MIC S. epidermidis C621,[2],8 µM
same,MIC E. coli UB1005,E. coli UB1005,8 µM
same,MIC S. aureus ATCC25923,S. aureus ATCC25923,>32 µM
same,Human RBC (% lysis) 50 μM,Human RBC,0 % lysis
same,Human RBC (% lysis) 200 μM,Human RBC,0 % lysis
same,Rabbit RBC (% lysis) 50 μM,Rabbit RBC,1 % lysis
same,Rabbit RBC (% lysis) 200 μM,Rabbit RBC,3 % lysis
same,MIC C500,[3],4 µM
same,MIC C498,[4],8 µM
C[C@H](NC(=O)[C@H](C)NC(=O)[C@H](C)NC(=O)[C@H](CCCCN)NC(=O)[C@@H](N)CCCCN)C(=O)N[C@@H](C)C(=O)N[C@@H](Cc1ccccc1)C(=O)N[C@@H](C)C(=O)N[C@@H](C)C(=O)N[C@@H](Cc1ccccc1)C(=O)N[C@@H](C)C(=O)N[C@@H](C)C(=O)N[C@@H](Cc1c[nH]c2ccccc12)C(=O)N[C@@H](Cc1ccccc1)C(=O)N[C@@H](C)C(=O)N[C@@H](C)C(=O)N[C@@H](Cc1ccccc1)C(=O)N[C@@H](C)C(=O)N[C@@H](C)C(=O)N[C@@H](C)C(=O)N[C@@H](C)C(=O)N[C@@H](CCCCN)C(=O)N[C@@H](CCCCN)C(=O)N[C@@H](CCCCN)C(=O)N[C@@H](CCCCN)C(N)=O [[F(4)25]] (H-KKAAAAFAAFAAWFAAFAAAAKKKK-NH2; N-terminus assumed),MIC B. subtilis ATCC6633,B. subtilis ATCC6633,2 µM
same,MIC P. aeruginosa ATCC27853,P. aeruginosa ATCC27853,8 µM
same,MIC E. faecalis ATCC29212,E. faecalis ATCC29212,>32 µM
same,MIC E. coli ATCC25922,E. coli ATCC25922,16 µM
same,MIC C875,[1],0.25 µM
same,MIC C621,[2],8 µM
same,MIC S. epidermidis C621,[2],4 µM
same,MIC E. coli UB1005,E. coli UB1005,8 µM
same,MIC S. aureus ATCC25923,S. aureus ATCC25923,32 µM
same,Human RBC (% lysis) 50 μM,Human RBC,17 % lysis
same,Human RBC (% lysis) 200 μM,Human RBC,42 % lysis
same,Rabbit RBC (% lysis) 50 μM,Rabbit RBC,14 % lysis
same,Rabbit RBC (% lysis) 200 μM,Rabbit RBC,34 % lysis
same,MIC C500,[3],4 µM
same,MIC C498,[4],16 µM

# Source: patent publication US20080234188A1, “Antimicrobial Peptides” (The Hospital for Sick Children, priority 2001, published 2008)
